Columns and labels:
[1] = test system: Human immunodeficiency virus 1; assay: Antiviral activity against HIV-1; type: functional, organism-based
[2] = Allosteric inhibition of LEDGF binding to HIV integrase by InLEAD assay; set-up: species or system Human immunodeficiency virus
[3] = test system: Human immunodeficiency virus 1; assay: Selectivity ratio of IC50 for antiviral activity against early stage HIV-1 to IC50 for antiviral activity against late stage HIV-1; type: functional
[4] = test system: Human immunodeficiency virus 1; assay: Antiviral activity against late stage HIV-1 assessed as inhibition of viral replication; type: functional, organism-based
[5] = test system: Human immunodeficiency virus 1; assay: Antiviral activity against early stage HIV-1 assessed as disruption of proviral integration; type: functional, organism-based

Row | SMILES | IC50 [1] [µM] | IC50 [2] [nM] | Ratio IC50 [3] | IC50 [4] [µM] | IC50 [5] [µM]
1 | CC(C)(C)NS(=O)(=O)c1ccccc1-c1cncc(C(=O)Nc2ccc(CCCC(=O)O)cc2)c1 | 7.86 | 1000 |  |  | 
2 | COc1ccc(NC(=O)c2cccc(-c3ccccc3S(=O)(=O)NC(C)(C)C)c2)c(C)c1 | 5.03 | 1910 |  |  | 
3 | COc1ccc(NC(=O)c2cc(-c3ccccc3S(=O)(=O)NC(C)(C)C)ccc2Cl)cc1 | > 42 | > 67500 |  |  | 
4 | COc1ccc(NC(=O)c2cncc(-c3cc(C)ccc3S(=O)(=O)NC(C)(C)C)c2)cc1 | 15.6 | 8850 |  |  | 
5 | COc1ccc(NC(=O)c2cccc(-c3ccccc3S(=O)(=O)NC(C)(C)C)n2)cc1 | 11.2 | > 33800 |  |  | 
6 | Cc1ccc(-c2c([C@H](OC(C)(C)C)C(=O)O)c(C)nc3ccccc23)cc1C |  | 37 | 53.9 | 0.031 | 1.67
7 | CC(C)(C)NS(=O)(=O)c1ccccc1-c1cncc(C(=O)Nc2ccc(CCC(=O)NCCNC(=O)c3ccc4c(c3)C(=O)OC43c4ccc(O)cc4Oc4cc(O)ccc43)cc2)c1 |  | 368 |  |  | 
8 | COC(=O)CCc1ccc(NC(=O)c2cccc(-c3ccccc3S(=O)(=O)NC(C)(C)C)c2)cc1 | 4.91 | 1450 |  |  | 
9 | COc1ccc(NC(=O)c2cncc(-c3ccccc3S(=O)(=O)NC(C)(C)C)c2)cc1 | 7.93 | 1290 | 5.4 | 5.09 | 27.3
10 | Cc1ccc(NC(=O)c2cccc(-c3ccccc3S(=O)(=O)NC(C)(C)C)c2)c(C)c1 | 5.1 | 1050 |  |  | 
11 | COc1ccc(NC(=O)c2cncc(-c3c(C)cccc3S(=O)(=O)NC(C)(C)C)c2)cc1 | 1.4 | 1290 | 9.3 | 2.7 | 25.2
12 | COc1ccc(NC(=O)c2cc(-c3ccccc3S(=O)(=O)NC(C)(C)C)ccn2)cc1 | 6.35 | 3790 |  |  | 
13 | COc1ccc(NC(=O)c2cccc(-c3ccccc3S(=O)(=O)NC3(C)CC3)c2)cc1 | 5.81 | 5970 |  |  | 
14 | COc1ccc(NC(=O)c2cc(-c3ccccc3S(=O)(=O)NC(C)(C)C)ccc2F)cc1 | 9.43 | 2810 |  |  | 
15 | COc1ccc(NC(=O)c2cncc(-c3ccc(C)cc3S(=O)(=O)NC(C)(C)C)c2)cc1 | 10.8 | > 67500 |  |  | 
16 | CCC(C)(C)NS(=O)(=O)c1ccccc1-c1cccc(C(=O)Nc2ccc(OC)cc2)c1 | 7.19 | 17300 |  |  | 
17 | COc1ccc(NC(=O)c2cncc(-c3cccc(C)c3S(=O)(=O)NC(C)(C)C)c2)cc1 | 16.1 | > 67500 |  |  | 
18 | COc1ccc(NC(=O)c2cccc(-c3ccccc3S(=O)(=O)NC(C)(C)C(C)(C)C)c2)cc1 | 27.7 | > 22500 |  |  | 
19 | COC(=O)C(Cc1ccccc1)NC(=O)CCc1ccc(NC(=O)c2cncc(-c3ccccc3S(=O)(=O)NC(C)(C)C)c2)cc1 (stereo not drawn) | 3 | 3220 |  |  | 
20 | COCC1(NS(=O)(=O)c2ccccc2-c2cccc(C(=O)Nc3ccc(OC)cc3)c2)CCCC1 | 5.15 | > 67500 | 2.3 | 7.15 | 16.3
21 | COc1ccc(NC(=O)c2cccc(-c3ccccc3S(=O)(=O)NC(C)(C)C)c2)cc1 | 10.9 | 3680 |  |  | 
22 | CC(C)(C)NS(=O)(=O)c1ccccc1-c1cncc(C(=O)Nc2ccc(CCC(=O)O)cc2)c1 | 9.31 | 1290 |  |  | 
23 | COc1ccc(NC(=O)c2cccc(-c3ccccc3S(=O)(=O)NC(C)(C)CC(C)(C)C)c2)cc1 | 2.91 | > 67500 |  |  | 
24 | CC(C)(C)NS(=O)(=O)c1ccccc1-c1cccc(C(=O)Nc2ccc(CCC(=O)O)cc2)c1 | 6.53 | 3740 | >3.6 | 12 | > 42
25 | COc1ccc(NC(=O)c2cccc(-c3ccccc3S(=O)(=O)NC3(C)CCC3)c2)cc1 | 5.79 | 2230 |  |  | 

— ChEMBL document CHEMBL5257121, “Discovery of arylsulfonamides as a novel class of allosteric integrase inhibitors with antiviral activity” (Bioorg Med Chem Lett, 2023)
